Test results published in patent US20230181632A1 (CHEMAS CO., LTD., priority 2020, published 2023).
Where two headings read alike, the source gives them in different places.

Columns and labels:
Vero E6 cells [1] = assay type: cell-based, African green monkey; conditions: same RNA samples as transcriptomic assay, normalized to 18s rRNA
Vero E6 cells [2] = test: MTT cytotoxicity assay; assay type: cell-based, African green monkey; conditions: 48 hours
Description: Vero E6 cells, which are derived from kidney cells extracted from an African green monkey, were seeded at a density of 1×10^4 cells/well into 96-well plates and incubated overnight in DMEM (Dulbecco's modified Eagle's medium) supplemented with glucose, 10% FBS (fetal bovine serum), 1% PS (penicillin+streptomycin), 1% L-glutamine 200 mM, 1% sodium pyruvate 100 mM, and nonessential amino acids before being washed with a PBS buffer.
Cytotoxicity was examined through an MTT assay. The MTT assay is a colorimetric assay for assessing cytotoxicity or viability by taking advantage of the mitochondrial ability to convert the yellow water-soluble substrate MTT tetrazolium into purple insoluble formazan product […] by the action of oxidoreductase enzymes present in mitochondria of living cells.
The cultured Vero E6 cells were seeded into 96-well plates. A 1% (w/v) solution of tetraarsenic hexoxide (As4O6) in distilled water was 1,000- to 20,000-fold diluted (As4O6 25.27 μM-1.26 μM) in DMEM and each of the dilutions was applied to the 96-well plates in duplicate, followed by incubation for 48 hours. […] Incubation at room temperature for 15 minutes made the formazan crystals completely dissolved, followed by reading absorbance at 570 nm (A570 nm) on a microplate.

[3] = system: SARS-CoV-2-infected Vero E6 cells; assay type: cell-based, African green monkey; conditions: 2,000-fold diluted, 36 or 72 hours
SARS-CoV-2 = assay type: cell-based
[4] = […], 3,000-fold diluted (8.42 μM), 3 days, Vero E6
[5] = […], 4,000-fold diluted (6.32 μM), 3 days, Vero E6

O1[As]2O[As]3O[As]1O[As](O2)O3 [tetraarsenic hexoxide]
expression of the genes BAG3, CRYAB, HSPH1, HMOX1 and ZFAND2A (RT-PCR) (Vero E6 cells [1]): upregulated expressions
Cytotoxicity (MTT) (Vero E6 cells [2]; 1% (w/v) solution, 2,000-fold or greater dilutions): the cells survived and did not undergo cell death
Cytotoxicity (MTT) (Vero E6 cells [2]; 1% (w/v) solution, up to 1,000-fold dilution (25.27 μM)): exhibited cytotoxicity leading to cell death
expression of the cytokine genes CSF1, PDGFA, PDGFB, CXCL1, CXCL2, CXCL3, CXCL8, CXCL10, CCL2, and CCL20 (transcriptome) [3]: remarkably downregulated
expression of the gene ZFAND2A (transcriptome) [3]: increased
expression of the genes BAGS, HSPA1B, CRYAB, HMOX1, and HSPH1 (transcriptome) [3]: upregulated
% Inhibition of CPE (SARS-CoV-2): 100%
% Inhibition of CPE (cytopathic effect) (SARS-CoV-2): 100%
% Inhibition of CPE (SARS-CoV-2; [4]): 87.5% (7/8well)
% Inhibition of CPE (cytopathic effect) (SARS-CoV-2; [4]): 37.5% (3/8well)
% Inhibition of CPE (SARS-CoV-2; [5]): 87.5% (7/8well)
% Inhibition of CPE (cytopathic effect) (SARS-CoV-2; [5]): 37.5% (3/8well)
inhibition against viral growth (SARS-CoV-2; […], across tested dilutions): 87-100%
